Reference: PubChem BioAssay AID248 (DTP/NCI, 2004)
Values joined by “and” are separate entries in the source; they are usually repeats but may differ in a detail not shown here. Equal values may be shown once. Inconclusive results and toxic doses are left out.

Test system: L1210 leukemia ip in BDF1 mice, survival T/C
Assay: NCI In Vivo Anticancer Drug Screen. Data for tumor model L1210 Leukemia (intraperitoneal) in B6D2F1 (BDF1) mice
Settings: endpoint: mean survival time, higher = longer survival
Outline: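 Tumor cells were implanted, animals were treated, and survival was followed. The result divides the treated measurement by the vehicle-control measurement.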

[1] = dose: 100.0 mg/kg/injection, schedule: Q01DX009 (ip), vehicle: saline
[2] = dose: 200.0 mg/kg/injection, schedule: Q01DX009 (ip), vehicle: saline
[3] = dose: 400.0 mg/kg/injection, schedule: Q01DX009 (ip), vehicle: saline
[4] = dose: 100.0 mg/kg/injection, schedule: Q04DX003 (ip), vehicle: saline
[5] = dose: 200.0 mg/kg/injection, schedule: Q04DX003 (ip), vehicle: saline
[6] = dose: 400.0 mg/kg/injection, schedule: Q04DX003 (ip), vehicle: saline
[7] = dose: 100.0 mg/kg/injection, schedule: Q01DX001 (ip), vehicle: Klucel (hydroxypropylcellulose) (HPC)
[8] = dose: 100.0 mg/kg/injection, schedule: Q01DX001 (ip), vehicle: saline
[9] = dose: 200.0 mg/kg/injection, schedule: Q01DX001 (ip), vehicle: saline
[10] = dose: 100.0 mg/kg/injection, schedule: Q01DX009 (ip), vehicle: Klucel (hydroxypropylcellulose) (HPC)
[11] = dose: 100.0 mg/kg/injection, schedule: Q04DX002 (ip), vehicle: Klucel (hydroxypropylcellulose) (HPC)
[12] = dose: 200.0 mg/kg/injection, schedule: Q01DX009 (ip), vehicle: Klucel (hydroxypropylcellulose) (HPC)
[13] = dose: 200.0 mg/kg/injection, schedule: Q04DX002 (ip), vehicle: Klucel (hydroxypropylcellulose) (HPC)
[14] = dose: 100.0 mg/kg/injection, schedule: Q04DX003 (ip), vehicle: Klucel (hydroxypropylcellulose) (HPC)

## COC(=O)CCCc1c[nH]c2ccccc12
dose: 100.0 mg/kg/injection, schedule: Q01DX009 (ip), vehicle: other
  T/C: 93 % of control
dose: 200.0 mg/kg/injection, schedule: Q01DX009 (ip), vehicle: other
  T/C: 100 % of control
dose: 400.0 mg/kg/injection, schedule: Q01DX009 (ip), vehicle: other
  T/C: 90 % of control

## CN1C2CCC1CNC2
[1]
  T/C: 101 % of control
[2]
  T/C: 96 % of control
[3]
  T/C: 90 % of control

## Cc1c(Cl)cccc1NC(=O)OC/C=C/c1ccccc1
dose: 100.0 mg/kg/injection, schedule: Q01DX001 (ip), vehicle: saline with Tween-80
  T/C: 93 % of control
dose: 100.0 mg/kg/injection, schedule: Q01DX009 (ip), vehicle: saline with Tween-80
  T/C: 101 % of control and 105 % of control
dose: 100.0 mg/kg/injection, schedule: Q04DX002 (ip), vehicle: saline with Tween-80
  T/C: 101 % of control and 114 % of control
dose: 100.0 mg/kg/injection, schedule: Q04DX003 (ip), vehicle: saline with Tween-80
  T/C: 91 % of control
dose: 200.0 mg/kg/injection, schedule: Q01DX001 (ip), vehicle: saline with Tween-80
  T/C: 93 % of control
dose: 200.0 mg/kg/injection, schedule: Q01DX009 (ip), vehicle: saline with Tween-80
  T/C: 94 % of control and 101 % of control
dose: 200.0 mg/kg/injection, schedule: Q04DX002 (ip), vehicle: saline with Tween-80
  T/C: 96 % of control and 106 % of control
dose: 200.0 mg/kg/injection, schedule: Q04DX003 (ip), vehicle: saline with Tween-80
  T/C: 93 % of control
dose: 400.0 mg/kg/injection, schedule: Q01DX001 (ip), vehicle: saline with Tween-80
  T/C: 88 % of control
dose: 400.0 mg/kg/injection, schedule: Q01DX009 (ip), vehicle: saline with Tween-80
  T/C: 94 % of control and 101 % of control
dose: 400.0 mg/kg/injection, schedule: Q04DX002 (ip), vehicle: saline with Tween-80
  T/C: 93 % of control and 97 % of control
dose: 400.0 mg/kg/injection, schedule: Q04DX003 (ip), vehicle: saline with Tween-80
  T/C: 98 % of control

## CC(C)(C)c1cccc(C(C)(C)C)c1OC(=O)NS(=O)(=O)c1ccccc1
dose: 12.5 mg/kg/injection, schedule: Q01DX009 (ip), vehicle: acetone
  T/C: 98 % of control
dose: 25.0 mg/kg/injection, schedule: Q01DX009 (ip), vehicle: acetone
  T/C: 94 % of control
dose: 50.0 mg/kg/injection, schedule: Q01DX009 (ip), vehicle: acetone
  T/C: 91 % of control
dose: 75.0 mg/kg/injection, schedule: Q01DX009 (ip), vehicle: Klucel (hydroxypropylcellulose) (HPC)
  T/C: 96 % of control
dose: 115.0 mg/kg/injection, schedule: Q01DX009 (ip), vehicle: Klucel (hydroxypropylcellulose) (HPC)
  T/C: 98 % of control

## COc1ccc(NC(=O)Nc2cc(Cl)ccc2OC)c(Cl)c1
[1]
  T/C: 100 % of control
[4]
  T/C: 104 % of control
[2]
  T/C: 93 % of control
[5]
  T/C: 98 % of control
[3]
  T/C: 88 % of control
[6]
  T/C: 101 % of control

## Brc1cccc[n+]1-c1ccc2cc(-[n+]3ccccc3Br)ccc2c1
dose: 9.38 mg/kg/injection, schedule: Q01DX001 (ip), vehicle: other
  T/C: 100 % of control

## C=CSCCCC(C)=O
[7]
  T/C: 97 % of control
dose: 200.0 mg/kg/injection, schedule: Q01DX001 (ip), vehicle: Klucel (hydroxypropylcellulose) (HPC)
  T/C: 103 % of control
dose: 400.0 mg/kg/injection, schedule: Q01DX001 (ip), vehicle: Klucel (hydroxypropylcellulose) (HPC)
  T/C: 101 % of control

## Cc1ccc(N2C(=O)ON(c3ccccc3)C2c2ccccc2)cc1 (configuration not stated)
dose: 50.0 mg/kg/injection, schedule: Q01DX001 (ip), vehicle: saline
  T/C: 100 % of control
[8]
  T/C: 102 % of control
[9]
  T/C: 106 % of control
dose: 400.0 mg/kg/injection, schedule: Q01DX001 (ip), vehicle: saline
  T/C: 108 % of control

## NC(=O)COc1ccc(Cl)cc1Cl
[10]
  T/C: 111 % of control
[11]
  T/C: 112 % of control
[12]
  T/C: 101 % of control
[13]
  T/C: 100 % of control

## C/C=C/C=N/n1c(CCC)nc2ccccc2c1=O
[11]
  T/C: 90 % of control
[13]
  T/C: 104 % of control

## C#CC(O)C1OC2OC(C)(C)OC2C1O (configuration not stated)
[10]
  T/C: 173 % of control
[14]
  T/C: 101 % of control
[12]
  T/C: 97 % of control
dose: 200.0 mg/kg/injection, schedule: Q04DX003 (ip), vehicle: Klucel (hydroxypropylcellulose) (HPC)
  T/C: 101 % of control
dose: 400.0 mg/kg/injection, schedule: Q01DX009 (ip), vehicle: Klucel (hydroxypropylcellulose) (HPC)
  T/C: 96 % of control
dose: 400.0 mg/kg/injection, schedule: Q04DX003 (ip), vehicle: Klucel (hydroxypropylcellulose) (HPC)
  T/C: 113 % of control

## C/C1=C/CCCCCC1
[8]
  T/C: 90 % of control
[1]
  T/C: 96 % of control
[4]
  T/C: 96 % of control
[9]
  T/C: 101 % of control
[2]
  T/C: 89 % of control
[5]
  T/C: 101 % of control
[3]
  T/C: 94 % of control
[6]
  T/C: 98 % of control

## C/C(=N/N=C(N)N)c1ccc(NC(=S)Nc2ccc(/C(C)=N/N=C(N)N)cc2)cc1
dose: 20.0 mg/kg/injection, schedule: Q01DX009 (ip), vehicle: water
  T/C: 176 % of control

## CCCCN1CC1CC (configuration not stated)
dose: 25.0 mg/kg/injection, schedule: Q04DX003 (ip), vehicle: Klucel (hydroxypropylcellulose) (HPC)
  T/C: 105 % of control
dose: 50.0 mg/kg/injection, schedule: Q04DX003 (ip), vehicle: Klucel (hydroxypropylcellulose) (HPC)
  T/C: 95 % of control
[7]
  T/C: 108 % of control
[14]
  T/C: 103 % of control
